# Experimental data as given in patent US20230089073A1 (Carmot Therapeutics, Inc., priority 2021, published 2023).
# pEC50: −log10 of the molar value.
# Target: T1, human GLP-1 receptor (Homo sapiens, UniProt P43220)
# T1 construct: expressed in transfected cells
# Test: GLP-1R cAMP Assay
# Type: cell-based
# Conditions: cAMP accumulation in CHO cells stably overexpressing the human GLP-1 receptor; 30 min treatment; HitHunter cAMP kit; read-out: EC50
# Method in brief: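 CHO cells stably overexpressing human GLP-1R, 10,000 cells/well, treated with compound in 20-point dose response in triplicate for 30 min. cAMP accumulation read by enzyme-complementation luminescence after lysis and overnight incubation; dose-response curves fitted.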
# T1 sequence (P43220 24-463): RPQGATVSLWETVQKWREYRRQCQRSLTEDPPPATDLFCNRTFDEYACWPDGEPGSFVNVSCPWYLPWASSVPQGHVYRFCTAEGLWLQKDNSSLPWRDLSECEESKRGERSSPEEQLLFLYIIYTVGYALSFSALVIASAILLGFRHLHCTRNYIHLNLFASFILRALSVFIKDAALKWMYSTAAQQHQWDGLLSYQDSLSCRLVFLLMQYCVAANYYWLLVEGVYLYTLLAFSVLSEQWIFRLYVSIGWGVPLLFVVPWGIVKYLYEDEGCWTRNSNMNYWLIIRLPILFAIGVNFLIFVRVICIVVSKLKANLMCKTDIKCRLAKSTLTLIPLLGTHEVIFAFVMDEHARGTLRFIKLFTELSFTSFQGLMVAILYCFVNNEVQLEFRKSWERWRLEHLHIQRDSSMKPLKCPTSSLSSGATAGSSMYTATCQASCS
row,SMILES,pEC50
1,"CCn1cncc1Cn1c(CN2CCN(C(=O)c3ccc(COc4ccc(C)cc4C)o3)CC2)nc2ccc(C(=O)O)cc21 [Compound 55, 2-[(4-{5-[(2,4-dimethylphenoxy)methyl]furan-2-carbonyl}piperazin-1-yl)methyl]-1-[(1-ethyl-1H-imidazol-5-yl)methyl]-1H-1,3-benzodiazole-6-carboxylic acid]",> 7.30
2,"Cc1ccc(N(C)c2cccc(C(=O)N3CC4CCC(C3)N4Cc3nc4ccc(C(=O)O)cc4n3C[C@@H]3CCO3)c2)c(Cl)c1 [Compound 87, 2-[(3-{3-[(2-chloro-4-methylphenyl)(methyl)amino]benzoyl}-3,8-diazabicyclo[3,2.1]octan-8-yl)methyl]-1-{[(2S)-oxetan-2-yl]methyl}-1H-1,3-benzodiazole-6-carboxylic acid]",6.30 to 7.30
3,"C[C@H]1C[C@@H](Oc2ccnc(COc3ccc(C#N)cc3F)n2)CCN1Cc1nc2ncc(C(=O)O)cc2n1C[C@@H]1CCO1 [Compound 513, 2-{[(2S,4S)-4-({2-[(4-cyano-2-fluorophenoxy)methyl]pyrimidin-4-yl}oxy)-2-methylpiperidin-1-yl]methyl}-1-{[(2S)-oxetan-2-yl]methyl}-1H-imidazo[4,5-b]pyridine-6-carboxylic acid]",> 7.30
4,"CCn1cncc1Cn1c(CN2CCC(Cc3ccc(COc4ccc(Cl)cc4Cl)o3)CC2)nc2ccc(C(=O)O)nc21 [Compound 108, 2-{[4-({5-[(2,4-dichlorophenoxy)methyl]furan-2-yl}methyl)piperidin-1-yl]methyl}-3-[(1-ethyl-1H-imidazol-5-yl)methyl]-3H-imidazo[4,5-b]pyridine-5-carboxylic acid]",> 7.30
5,"N#Cc1cc(Cl)ccc1OCc1cccc(CC2CCN(Cc3nc4ccc(C(=O)O)cc4n3C[C@H]3CCOC3)CC2)c1 [Compound 158, 2-{[4-({3-[(4-chloro-2-cyanophenoxy)methyl]phenyl}methyl)piperidin-1-yl]methyl}-1-{[(3R)-oxolan-3-yl]methyl}-1H-1,3-benzodiazole-6-carboxylic acid]",> 7.30
6,"N#Cc1cc(F)ccc1OCc1cc(OC2CCN(Cc3nc4ccc(C(=O)O)cc4n3C[C@@H]3CCO3)CC2)ccn1 [Compound 183, 2-{[4-({2-[(2-cyano-4-fluorophenoxy)methyl]pyridin-4-yl}oxy)piperidin-1-yl]methyl}-1-{[(2S)-oxetan-2-yl]methyl}-1H-1,3-benzodiazole-6-carboxylic acid]",> 7.30
7,"O=C(O)c1ccc2nc(CN3CCC(Oc4ccnc(COc5cc(F)c(F)cc5F)n4)CC3)n(C[C@@H]3CCO3)c2c1 [Compound 495, 1-{[(2S)-oxetan-2-yl]methyl}-2-{[4-({2-[(2,4,5-trifluorophenoxy)methyl]pyrimidin-4-yl}oxy)piperidin-1-yl]methyl}-1H-1,3-benzodiazole-6-carboxylic acid]",> 7.30
8,"O=C(O)c1ccc2nc(CN3CCC(Oc4cccc(COc5cc(Cl)cc(Cl)c5)c4)CC3)n(C[C@@H]3CCO3)c2c1 [Compound 242, 2-[(4-{3-[(3,5-dichlorophenoxy)methyl]phenoxy}piperidin-1-yl)methyl]-1-{[(2S)-oxetan-2-yl]methyl}-1H-1,3-benzodiazole-6-carboxylic acid]",> 7.30
9,"Cc1c(Cl)cccc1OCc1ccc(CN2CCN(Cc3nc4ccc(C(=O)O)cc4n3C[C@@H]3CCO3)CC2)o1 [Compound 8, 2-{[4-({5-[(3-chloro-2-methylphenoxy)methyl]furan-2-yl}methyl)piperzin-1-yl]methyl}-1-{[(2S)-oxetan-2-yl]methyl}-1H-1,3-benzodiazole-6-carboxylic acid]",6.30 to 7.30
10,N#Cc1ccc(OCc2nc(OC3CCN(Cc4nc5ccc(C(=O)O)cc5n4C[C@@H]4CCO4)CC3)ccc2F)c(F)c1 [Compound 347],> 7.30
11,"O=C(O)c1ccc2nc(CN3CCC(Oc4ccnc(COc5ccc(Cl)cc5Cl)c4)CC3)n(Cc3ncco3)c2c1 [Compound 170, 2-{[4-({2-[(2,4-dichlorophenoxy)methyl]pyridin-4-yl}oxy)piperidin-1-yl]methyl}-1-[(1,3-oxazol-2-yl)methyl]-1H-1,3-benzodiazole-6-carboxylic acid]",> 7.30
12,"O=C(O)c1ccc2nc(CN3CCN(C(=O)c4ccc(COc5cccc(Cl)c5)o4)CC3)n(C[C@@H]3CCO3)c2c1 [Compound 40, 2-[(4-{5-[(3-chlorophenoxy)methyl]furan-2-carbonyl}piperazin-1-yl)methyl]-1-{[(2S)-oxetan-2-yl]methyl}-1H-1,3-benzodiazole-6-carboxylic acid]",< 6.30
13,O=C(O)c1ccc2nc(CN3CCC(Oc4cccc(OCc5ccc(F)cc5Cl)c4)CC3)n(C[C@@H]3CCO3)c2c1 [Compound 207],> 7.30
14,"CCn1cncc1Cn1c(CN2CCC(Cc3cccc(COc4ccc(Cl)cc4C#N)c3)CC2)nc2ccc(C(=O)O)cc21 [Compound 165, 2-{[4-({3-[(4-chloro-2-cyanophenoxy)methyl]phenyl}methyl)piperidin-1-yl]methyl}-1-[(1-ethyl-1H-imidazol-5-yl)methyl]-1H-1,3-benzodiazole-6-carboxylic acid]",> 7.30
15,"N#Cc1cc(Cl)ccc1OCc1nccc(OC2CCN(Cc3nc4ccc(C(=O)O)cc4n3C[C@@H]3CCO3)CC2)n1 [Compound 481, 2-{[4-({2-[(4-chloro-2-cyanophenoxy)methyl]pyrimidin-4-yl}oxy)piperidin-1-yl]methyl}-1-{[(2S)-oxetan-2-yl]methyl}-1H-1,3-benzodiazole-6-carboxylic acid]",> 7.30
16,"Cc1cc(C(=O)O)cc2c1nc(CN1CC[C@H](Oc3ccnc(COc4ccc(C#N)cc4F)c3)C[C@@H]1C)n2C[C@@H]1CCO1 [Compound 503, 2-{[(2S,4S)-4-({2-[(4-cyano-2-fluorophenoxy)methyl]pyridin-4-yl}oxy)-2-methylpiperidin-1-yl]methyl}-4-methyl-1-{[(2S)-oxetan-2-yl]methyl}-1H-1,3-benzodiazole-6-carboxylic acid]",> 7.30
17,"CCn1cncc1Cn1c(CN2CCN(C(=O)c3cccc(COc4ccc(C#N)cc4F)c3)CC2)nc2ccc(C(=O)O)cc21 [Compound 69, 2-[(4-{3-[(4-cyano-2-fluorophenoxy)methyl]benzoyl}piperazin-1-yl)methyl]-1-[(1-ethyl-1H-imidazol-5-yl)methyl]-1H-1,3-benzodiazole-6-carboxylic acid]",< 6.30
18,O=C(O)c1ccc2nc(CN3CCC(Oc4ccnc(COc5ccc(Cl)cc5F)c4)CC3)n(C[C@@H]3CCO3)c2n1 [Compound 378],> 7.30
19,"N#Cc1cc(Cl)ccc1OCc1cccc(OC2CCN(Cc3nc4ccc(C(=O)O)cc4n3C[C@@H]3CCO3)CC2)n1 [Compound 248, 2-{[4-({6-[(4-chloro-2-cyanophenoxy)methyl]pyridin-2-yl}oxy)piperidin-1-yl]methyl}-1-{[(2S)-oxetan-2-yl]methyl}-1H-1,3-benzodiazole-6-carboxylic acid]",6.30 to 7.30
20,O=C(O)c1ccc2nc(CN3CCC(Oc4ccnc(COc5ccc(C(F)(F)F)cc5F)n4)CC3)n(C[C@@H]3CCO3)c2n1 [Compound 371],> 7.30
21,"CCn1cncc1Cn1c(CN2CCc3[nH]c4ccc(OCc5ccc(Cl)cc5Cl)cc4c3C2)nc2ccc(C(=O)O)cc21 [Compound 143, 2-({8-[(2,4-dichlorophenyl)methoxy]-1H,2H,3H,4H,5H-pyrido[4,3-b]indol-2-yl}methyl)-1-[(1-ethyl-1H-imidazol-5-yl)methyl]-1H-1,3-benzodiazole-6-carboxylic acid]",6.30 to 7.30
22,"Cn1cncc1Cn1c(CN2CCC(Oc3ccnc(COc4ccc(Cl)cc4C#N)c3)CC2)nc2ccc(C(=O)O)cc21 [Compound 259, 2-{[4-({2-[(4-chloro-2-cyanophenoxy)methyl]pyridin-4-yl}oxy)piperidin-1-yl]methyl}-1-[(1-methyl-1H-imidazol-5-yl)methyl]-1H-1,3-benzodiazole-6-carboxylic acid]",> 7.30
23,"CCn1cncc1Cn1c(CN2CCC(Cc3cc(F)cc(COc4ccc(Cl)cc4Cl)c3)CC2)nc2ccc(C(=O)O)cc21 [Compound 133, 2-{[4-({3-[(2,4-dichlorophenoxy)methyl]-5-fluorophenyl}methyl)piperidin-1-yl]methyl}-1-[(1-ethyl-1H-imidazol-5-yl)methyl]-1H-1,3-benzodiazole-6-carboxylic acid]",> 7.30
24,"O=C(O)c1ccc2nc(CN3CCN(Cc4cc5ccc(-c6ccc(Cl)cc6F)cc5o4)CC3)n(C[C@@H]3CCO3)c2c1 [Compound 28, 2-[(4-{[6-(4-chloro-2-fluorophenyl)-1-benzofuran-2-yl]methyl}piperazin-1-yl)methyl]-1-{[(2S)-oxetan-2-yl]methyl}-1H-1,3-benzodiazole-6-carboxylic acid]",< 6.30
25,N#Cc1ccc(OCc2cccc(OC3CCN(Cc4nc5c(F)cc(C(=O)O)cc5n4C[C@@H]4CCO4)CC3)c2)c(F)c1 [Compound 309],> 7.30
26,"O=C(O)c1ccc2nc(CN3CCN(Cc4ccc(COc5ccc(Cl)cc5Cl)o4)CC3)n(C[C@@H]3CCO3)c2c1 [Compound 9, 2-{[4-({5-[(2,4-dichlorophenoxy)methyl]furan-2-yl}methyl)piperzin-1-yl]methyl}-1-{[(2S)-oxetan-2-yl]methyl}-1H-1,3-benzodiazole-6-carboxylic acid]",6.30 to 7.30
27,N#CCC1(Cn2c(CN3CCC(Oc4ccnc(COc5ccc(F)cc5C#N)n4)CC3)nc3ccc(C(=O)O)cc32)CC1 [Compound 348],> 7.30
28,"O=C(O)c1ccc2nc(CN3CCN(Cc4ccc(OCc5ccc(Cl)cc5Cl)o4)CC3)n(C[C@@H]3CCO3)c2c1 [Example 74, (S)-2-((4-((5-((2,4-Dichlorobenzyl)oxy)furan-2-yl)methyl)piperazin-1-yl)methyl)-1-(oxetan-2-ylmethyl)-1H-benzo[d]imidazole-6-carboxylic acid]",< 6.30
29,"CN(C)c1cc(C(=O)N2CCN(Cc3nc4ccc(C(=O)O)cc4n3C[C@@H]3CCO3)CC2)ncn1 [Example 1, (S)-2-((4-(6-(Dimethylamino)pyrimidine-4-carbonyl)piperazin-1-yl)methyl)-1-(oxetan-2-ylmethyl)-1H-benzo[d]imidazole-6-carboxylic acid]",6.30 to 7.30
